Source: patent publication US20020058295A1, “Method of screening candidate compounds for susceptibility to oxidative metabolism” (priority 1998, published 2002)
Like-named read-outs stand apart in the source and are kept apart here.

Tests used:
CYP1A2 = target: T1, CYP1A2 (Homo sapiens, UniProt P05177); settings: 5 min
T1 sequence (P05177 1-516): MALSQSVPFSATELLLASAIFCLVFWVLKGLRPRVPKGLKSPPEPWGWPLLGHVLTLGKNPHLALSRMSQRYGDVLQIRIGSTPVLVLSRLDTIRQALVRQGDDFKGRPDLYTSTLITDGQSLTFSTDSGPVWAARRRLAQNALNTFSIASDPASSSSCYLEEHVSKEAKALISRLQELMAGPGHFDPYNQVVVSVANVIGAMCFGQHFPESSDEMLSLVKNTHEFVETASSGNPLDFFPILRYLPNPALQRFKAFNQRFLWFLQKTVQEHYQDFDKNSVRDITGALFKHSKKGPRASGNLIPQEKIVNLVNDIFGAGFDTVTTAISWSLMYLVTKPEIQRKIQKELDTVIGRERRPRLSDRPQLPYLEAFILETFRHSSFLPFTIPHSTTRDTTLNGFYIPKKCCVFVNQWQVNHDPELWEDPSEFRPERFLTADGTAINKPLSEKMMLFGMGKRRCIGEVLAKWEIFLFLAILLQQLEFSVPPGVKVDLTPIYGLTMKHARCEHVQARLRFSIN
Method: The effect of furafylline, a specific inhibitor of CYP1A2, on CYP1A2-mediated ethoxyresorufin metabolism was also examined. Furafylline (1 and 10 ,μM) was pre-incubated with CYP1A2 SUPERSOME™ (180 μg/ml protein) and NADPH (4 mM) in Tris buffer in a total volume of 0.5 ml for 10 min. Then ethoxyresorufin (5 μM), DCFH-DA (5 μM), and supplemental NADPH was added to the mixture. The reaction proceeded for 5 min.

CYP3A4 [1] = target: T2, CYP3A4 (Homo sapiens, UniProt P08684); settings: Crespi et al., Anal. Biochem. 248:188-190 (1997); cited from earlier work
T2 sequence (P08684 whole entry): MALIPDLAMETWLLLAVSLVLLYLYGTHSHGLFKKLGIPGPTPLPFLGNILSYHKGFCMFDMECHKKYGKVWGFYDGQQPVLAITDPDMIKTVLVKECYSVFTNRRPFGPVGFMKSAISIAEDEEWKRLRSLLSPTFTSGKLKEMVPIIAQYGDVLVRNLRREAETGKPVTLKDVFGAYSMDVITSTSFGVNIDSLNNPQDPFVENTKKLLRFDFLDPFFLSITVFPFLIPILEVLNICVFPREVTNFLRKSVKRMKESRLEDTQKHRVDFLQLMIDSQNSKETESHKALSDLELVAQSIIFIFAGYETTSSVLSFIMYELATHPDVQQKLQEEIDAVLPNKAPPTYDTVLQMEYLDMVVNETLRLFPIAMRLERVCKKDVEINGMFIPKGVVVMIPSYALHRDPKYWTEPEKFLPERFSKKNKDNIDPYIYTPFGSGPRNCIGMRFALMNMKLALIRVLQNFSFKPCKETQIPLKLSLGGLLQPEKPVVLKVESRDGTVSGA

CYP3A4 [2] = target: T2, CYP3A4; experiment: DCF formation during CYP3A4-mediated metabolism of substrates (CYP3A4OR, DCFH-DA, NADPH)
Method: A fluorogenic probe 2′, 7′-dichlorodihydrofluorescin-diacetate (DCFH-DA) was added to a CYP-mediated reaction mixture containing a substrate, isoenzyme, and NADPH in Tris buffer (50 mM, pH 7.4). The substrate comprised testosterone. Metabolism of the substrate was examined by measurement of formation of the resulting metabolite (prior art method) and/or 2′, 7′-dichlorofluroescein (DCF; method in accordance with the present invention) which was converted from the DCFH-DA in the presence of the ROS produced by CYP-mediated reactions. Dextromethorphan and benzyloxyresorufin served as two additional substrates, and phenacetine (not a CYP3A4 substrate) as a negative control for CYP3A4 to test whether the method of the present invention could differentiate substrates with different metabolic rates or substrates from non-substrates.
Initial studies were conducted to examine whether DCF was formed during CYP-mediated oxidation using testosterone hydroxylation by CYP3A4OR. A reaction mixture (total 2 ml) comprising DCFH-DA (5.36 μM), CYP3A4OR (0.5 mg/ml) and testosterone (50 μM) in Tris buffer (50 mM, pH 7.4) was prepared. The reaction was initiated by adding NADPH (0.5 mM) and allowed to proceed at room temperature. The fluorescent spectra (emission and excitation) of DCF formed from the incubation was determined using LS50B Luminescence Spectrometer (Perkin-Elmer, Norwalk, Conn.). The spectra were compared with that of standard DCF in Tris buffer (50 mM, pH 7.4). An incubation mixture that contained all the components as described previously except for DCFH-DA served as a control.
(§1) Metabolism—After obtaining the maximal excitation and emission wavelengths of DCF under experimental conditions, the fluorescent signals at the maximal excitation and emission wavelengths were determined for incubation reactions that contained 12.5, 25, and 50 μM testosterone to test whether DCF formation was dependent on testosterone concentrations. The incubation conditions were the same as those described above. The formation of DCF at 10 min post addition of NADPH was calculated based on the standard curve of DCF. The standard curve covered DCF concentrations ranging from 0.05 to 50 nM. In parallel, DCF formation was determined with incubation reactions that were devoid of any of NADPH, CYP3A4 or testosterone.
DCFH-DA (1, 2.5 or 5 μM) was incubated with CYP3A4OR (0.5 mg/ml protein), testosterone (33 μM), and NADPH (1 mM) in Tris buffer. DCF concentration was measured at 5, 10, 20 and 30 min. The effect of NADPH concentration on DCF formation at 20 and 30 min was examined with incubations containing NADPH (0.5, 1 or 2 mM), testosterone (33 μM), and DCFH-DA (2.5 μM).
(§2) DCFH-DA (2.5 ,μM) was incubated with testosterone (5-40 4 μM), CYP3A4OR (0.5 mg/ml protein) and NADPH (1 mM) in Tris buffer. The total incubation volume was 1 ml. The formation of DCF was measured at 10 and 20 min post addition of NADPH. Triplicate incubations were performed at each concentration. A Michaelis-Menten function was used to fit to DCF formation rate vs. testosterone concentration data to obtain estimates of the relevant kinetic parameters using the nonlinear least-squares regression method (Winnonlin Scientific Consulting Co., Apex, N.C.). Parallel experiments were conducted to obtain the kinetic parameters based on measurement of 6β-OH testosterone, a specific CYP3A4-mediated metabolite of testosterone, with the HPLC-UV method. The concentration range of testosterone used for the HPLC-UV method was 10 to 75 μM.
Dextromethorphan (2-100 μM), benzyloxyresorufin (5-100 μM), or phenacetin (48 μM) was incubated with CYP3A4OR (0.5 or 1 mg/ml), DCFH-DA (2.5 μM) and NADPH (1 mM) in Tris buffer. In the case of benzyloxyresorufin, pluronic F-68 (2%, 5 μl) was added to the reaction mixture (Crespi et al., Ana. Biochem. 248:188-190). DCF formation was measured at timed intervals.

CYP3A4 [3] = target: T2, CYP3A4; experiment: 6β-OH testosterone formation during CYP3A4-mediated testosterone metabolism, HPLC-UV method; settings: recombinant CYP3A4OR
Method: as §1
as §2, with “Parallel experiments were conducted to obtain the kinetic parameters based on measurement of 6β-OH testosterone, a specific CYP3A4-mediated metabolite of testosterone, with the HPLC-UV method. The concentration range of testosterone used for the HPLC-UV method was 10 to 75 μM.” left out

CYP3A4 [4] = target: T2, CYP3A4; experiment: HPLC monitoring of potential phenacetin metabolites after incubation with CYP3A4OR; assay type: in vitro ADME; parameters: Glaxo Wellcome Inc. (gift); settings: phenacetin 92 μM; CYP3A4OR 0.5 or 1 mg/ml; NADPH 1 mM; 10 or 30 min
Method: Briefly, acetonitrile (0.4 ml) was added to a reaction mixture (0.5 ml) of phenacetin as described previously. The resultant solution was mixed and centrifuged (15,000×3 min). An aliquot (100 μl) of the supernatant was injected to an Advantage 100 5 micron C18 column (4.6×250 mm, Thomas Liquid Chromatography). The mobile phase comprised CH3CN and H2O with a gradient from 1 to 99% CH3CN over 20 min at a flow rate of 1 ml/min. Phenacetin and its potential metabolites were monitored at 244 nm.
Potential metabolites of phenacetin were monitored by HPLC. […] Phenacetin (92 μM) was incubated with CYP3A4oR (0.5 or 1 mg/ml) and NADPH (1 mM) for 10 or 30 min. Incubation in the absence of NADPH was used as control.

[5] = substrate: CCOc1ccc2nc3ccc(=O)cc-3oc2c1; experiment: DCF formation during CYP1A2-mediated metabolism of ethoxyresorufin (CYP1A2 SUPERSOME); assay type: in vitro ADME, human; settings: other: CYP1A2 SUPERSOME 90 μg/ml; DCFH-DA 5 μM; 15 min
Method: (§3) Initial experiments were conducted to examine ethoxyresorufin concentration-dependent formation of DCF. Ethoxyresorufin (0.5, 5, 50 μM) was incubated with CYP1A2 SUPERSOME™ (sold under this trademark by Gentest Corp., Woburn, Mass.) (90 μg/ml protein), DCFH-DA (5 μM) and NADPH (1 mM). Formation of resorufin and DCF for the sample was measured at 8 and 10 min, respectively. The kinetic parameters then were obtained by incubating ethoxyresorufin (0.5-2.5 μM) with CYP1A2 SUPERSOME™ (90 μg/ml protein), DCFH-DA (5 μM), and NADPH (1 mM) for 5 min for measurement of resorufin formation and 15 min for measurement of DCF formation. Formation of DCF and resorufin was determined by fluorescence spectrophotometry. All experiments were performed in triplicate unless otherwise indicated.

[6] = substrate: CCOc1ccc2nc3ccc(=O)cc-3oc2c1; experiment: Resorufin formation during CYP1A2-mediated metabolism of ethoxyresorufin (fluorescence spectrophotometry); assay type: in vitro ADME, human; settings: other: CYP1A2 SUPERSOME 90 μg/ml; 5 min
Method: Resorufin, a common metabolite of ethoxyresorufin by CYP1A2 and of benzyloxyresorufin by CYP3A4, was measured by fluorescence spectrophotometry as described above for DCF, with excitation and emission wavelength at 570 and 583 nm, respectively.
as §3

[7] = read-out: Apparent Km by measurement of DCF formation, CYP3A4OR, DCFH-DA 2.5 μM, NADPH 1 mM, Michaelis-Menten fit

Molecule: Cc1nc2c([nH]1)c(=O)n(C)c(=O)n2Cc1ccco1 [furafylline]
- DCF formation (CYP1A2; 1 μM): 83.9 ±10.2 % of the control
- DCF formation (CYP1A2; 10 μM): 73.9±7.0 % of the control

Molecule: O=c1ccc2nc3ccc(OCc4ccccc4)cc3oc-2c1 [Benzyloxyresorufin, 7-benzyloxyresorufin]
- Vmax for benzyloxyresorufin by CYP3A4 (CYP3A4 [1]): 0.31 min⁻¹
- Apparent Vmax by measurement of DCF formation (CYP3A4 [2]; CYP3A4OR, DCFH-DA 2.5 μM, NADPH 1 mM, Michaelis-Menten fit): 1.17 ± 0.14 pmol DCF/min/mg pr.
- Km (CYP3A4 [2]; [7]): 3.79 ± 2.34 µM

Molecule: C[C@]12CC[C@H]3[C@@H](CCC4=CC(=O)CC[C@@]43C)[C@@H]1CC[C@@H]2O [Testosterone]
- Km (CYP3A4 [3]): 43.4 µM
- Km (CYP3A4 [2]; human, pH 7.4, Apparent Km by measurement of DCF formation, CYP3A4OR, DCFH-DA 2.5 μM, NADPH 1 mM, Michaelis-Menten fit): 11.9 µM
- Km by DCF measurement lower than Km by 6β-OH testosterone measurement (CYP3A4 [2]; ratio of the two Km values): approximately 3.5 fold
- Km (CYP3A4 [2]; [7]): 12 ± 3.58 µM

Molecule: CCOc1ccc(NC(C)=O)cc1 [Phenacetin, N-[4-ethoxyphenyl] acetamide]
- metabolites found by prior art HPLC methods (CYP3A4 [4]): no detectable metabolites
- DCF formation from potential metabolism by CYP3A4 (in words) (CYP3A4 [2]; human, 48 μM, pH 7.4): ^aPhenacetin was not significantly metabolized by CYP3A4, and DCF formation was not sufficiently high to allow measurement.

B1: CYP1A2 (Homo sapiens) (protein)
chain: T1 sequence (P05177 1-516)
notes: purchased Gentest Corp. (Woburn, Mass.)
- Km [5]: 3.46 ± 1.07 µM
- Km [6]: 4.89 ± 1.71 µM
